Some results are limits rather than exact numbers.

T1 sequence (Q8NER1 whole entry): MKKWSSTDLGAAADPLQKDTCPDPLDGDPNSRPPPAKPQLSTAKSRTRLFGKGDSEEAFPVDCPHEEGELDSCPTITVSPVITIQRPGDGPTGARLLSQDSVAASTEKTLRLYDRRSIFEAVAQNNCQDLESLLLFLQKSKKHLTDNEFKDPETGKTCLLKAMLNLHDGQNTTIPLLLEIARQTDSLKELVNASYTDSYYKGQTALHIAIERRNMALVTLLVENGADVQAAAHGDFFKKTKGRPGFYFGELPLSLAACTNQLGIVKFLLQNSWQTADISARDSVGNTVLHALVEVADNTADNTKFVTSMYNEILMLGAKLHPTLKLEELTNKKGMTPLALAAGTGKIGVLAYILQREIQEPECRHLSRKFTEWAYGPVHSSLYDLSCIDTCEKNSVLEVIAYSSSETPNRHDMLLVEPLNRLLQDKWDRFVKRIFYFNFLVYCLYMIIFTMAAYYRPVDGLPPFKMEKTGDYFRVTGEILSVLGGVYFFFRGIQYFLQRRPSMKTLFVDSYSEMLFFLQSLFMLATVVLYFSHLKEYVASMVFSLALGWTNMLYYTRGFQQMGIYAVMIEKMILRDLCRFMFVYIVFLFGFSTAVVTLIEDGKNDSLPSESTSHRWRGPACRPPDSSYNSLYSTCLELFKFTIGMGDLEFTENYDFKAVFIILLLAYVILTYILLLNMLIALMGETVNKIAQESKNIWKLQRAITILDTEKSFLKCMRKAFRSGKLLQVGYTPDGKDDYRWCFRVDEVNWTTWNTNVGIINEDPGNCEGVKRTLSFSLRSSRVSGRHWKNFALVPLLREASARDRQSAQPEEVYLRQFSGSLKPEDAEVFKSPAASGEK
vanilloid receptor (VR), sequence (Q8NER1 whole entry): as above

One assay addresses T1, human capsaicin receptor (Homo sapiens, UniProt Q8NER1).
T1 construct: transfected with the pBK-CMV expression construct encoding the full length human capsaicin receptor; expressed in transfected cells
Kind of assay: Calcium mobilization assay, determination of antagonist activity. The class given is cell-based. Conditions: cells expressing human capsaicin receptor, capsaicin-induced fluorescence response, Example 6. On the procedure:
A cDNA encoding full length human capsaicin receptor (SEQ ID NO:1, 2 or 3 of U.S. Pat. No. 6,482,611) is subcloned in the plasmid pBK-CMV (Stratagene, La Jolla, Calif.) for recombinant expression in mammalian cells.
Human embryonic kidney (HEK293) cells are transfected with the pBK-CMV expression construct encoding the full length human capsaicin receptor using standard methods. The transfected cells are selected for two weeks in media containing G418 (400 μg/ml) to obtain a pool of stably transfected cells. Independent clones are isolated from this pool by limiting dilution to obtain clonal stable cell lines for use in subsequent experiments.
Cells transfected with expression plasmids (as described in Example 4) and thereby expressing human capsaicin receptor are seeded and grown to 70-90% confluency in FALCON black-walled, clear-bottomed 96-well plates (#3904, BECTON-DICKINSON, Franklin Lakes, N.J.). The culture medium is emptied from the 96 well plates and FLUO-3 AM calcium sensitive dye (Molecular Probes, Eugene, Oreg.) is added to each well (dye solution: 1 mg FLUO-3 AM, 440 μL DMSO and […] pluronic acid in DMSO, diluted 1:250 in Krebs-Ringer HEPES (KRH) buffer (25 mM HEPES, 5 mM KCl, 0.96 mM NaH2PO4, 1 mM MgSO4, 2 mM CaCl2, 5 mM glucose, 1 mM probenecid, pH 7.4), 50 μl diluted solution per well). Plates are covered with aluminum foil and incubated at 37° C. for 1-2 hours in an environment containing 5% CO2. After the incubation, the dye is emptied from the plates, and the cells are washed once with KRH buffer, and resuspended in KRH buffer.
To measure the ability of a test compound to agonize or antagonize a calcium mobilization response in cells expressing capsaicin receptors to capsaicin or other vanilloid agonist, the EC50 of the agonist capsaicin is first determined. An additional 20 μl of KRH buffer and 1 μl DMSO is added to each well of cells, prepared as described above. 100 μl capsaicin in KRH buffer is automatically transferred by the FLIPR instrument to each well. Capsaicin-induced calcium mobilization is monitored using either FLUOROSKAN ASCENT (Labsystems; Franklin, Mass.) or FLIPR (fluorometric imaging plate reader system; Molecular Devices, Sunnyvale, Calif.) instruments. Data obtained between 30 and 60 seconds after agonist application are used to generate an 8-point concentration response curve, with final capsaicin concentrations of 1 nM to 3 μM. KALEIDAGRAPH software (Synergy Software, Reading, Pa.) is used to fit the data to the equation: y=a*(1/(1+(b/x)^c)) to determine the 50% excitatory concentration (EC50) for the response. In this equation, y is the maximum fluorescence signal, x is the concentration of the agonist or antagonist (in this case, capsaicin), a is the Emax, b corresponds to the EC50 value and c is the Hill coefficient. Determination of Agonist Activity
Test compounds are dissolved in DMSO, diluted in 20 μl KRH buffer so that the final concentration of test compounds in the assay well is between 1 μM and 5 μM, and added to cells prepared as described above. The 96 well plates containing prepared cells and test compounds are incubated in the dark, at room temperature for 0.5 to 6 hours. It is important that the incubation not continue beyond 6 hours. Just prior to determining the fluorescence response, 100 μl capsaicin in KRH buffer at twice the EC50 concentration determined as described above is automatically added by the FLIPR instrument to each well of the 96 well plate for a final sample volume of 200 μl and a final capsaicin concentration equal to the EC50. The final concentration of test compounds in the assay wells is between 1 μM and 5 μM. […] The concentration of antagonist required to provide a 50% decrease, relative to the response observed in the presence of capsaicin and without antagonist, is the IC50 for the antagonist, and is preferably below 1 micromolar, 100 nanomolar, 10 nanomolar or 1 nanomolar.
(In general: A change in cytosolic calcium serves as a functional read-out for many receptors and channels.)
Take `CC(C)COCc1nc(Nc2ccc(C(C)(C)C#N)cc2)c2cnn(-c3ccccc3Cl)c2n1` [2-{4-[1-(2-Chloro-phenyl)-6-isobutoxymethyl-1H-pyrazolo[3,4-d]pyrimidin-4-ylamino]-phenyl}-2-methyl-propionitrile]: the IC50 (as a rule, the point on the concentration scale where inhibition reaches its midpoint) is at most 1000 nM.

Turning to `CC(C)(C#N)c1ccc(Nc2ncnc3c2ncn3-c2cccc(Cl)c2)cc1` [2-{4-[9-(3-Chloro-phenyl)-9H-purin-6-ylamino]-phenyl}-2-methyl-propionitrile], the IC50 is at most 1000 nM.

`N#Cc1ccc(Nc2ncnc3c2ncn3-c2cccc(Cl)c2)cc1` [4-[9-(3-Chloro-phenyl)-9H-purin-6-ylamino]-benzonitrile]: the IC50 is at most 1000 nM.

Regarding `Clc1ccc(Nc2ncnc3c2ncn3-c2cccc(Cl)c2)cc1` [(4-Chloro-phenyl)-[9-(3-chloro-phenyl)-9H-purin-6-yl]-amine], the IC50 is at most 1000 nM.

Regarding `C[C@@H]1CN(Cc2nc(Nc3ccc(C(C)(C)C)cc3)c3cnn(-c4ccccc4Cl)c3n2)C[C@H](C)O1` [(4-tert-Butyl-phenyl)-[1-(2-chloro-phenyl)-6-(2,6-dimethyl-morpholin-4-ylmethyl)-1H-pyrazolo[3,4-d]pyrimidin-4-yl]-amine], the IC50 was at most 1000 nM.

For the molecule `CC(C)COCc1nc(Nc2ccc(C(C)(C)C)cc2)c2cnn(-c3ccccc3Cl)c2n1` [(4-tert-Butyl-phenyl)-[1-(2-chloro-phenyl)-6-isobutoxymethyl-1H-pyrazolo[3,4-d]pyrimidin-4-yl]-amine], the IC50 is at most 1000 nM.

For the molecule `CC(C)(C)c1ccc(Nc2ncnc3c2cnn3-c2ncccc2Cl)cc1` [(4-tert-Butyl-phenyl)-[1-(3-chloro-pyridin-2-yl)-1H-pyrazolo[3,4-d]pyrimidin-4-yl]-amine], the IC50 is at most 1000 nM.

For the molecule `CC(C)(C)c1ccc(Nc2ncnc3c2ncn3Cc2ccccc2Cl)cc1` [(4-tert-Butyl-phenyl)-[9-(2-chloro-benzyl)-9H-purin-6-yl]-amine], the IC50 is at most 1000 nM.

Consider `Cc1nc2c(Nc3ccc(C(C)(C)C)cc3)ncnc2n1-c1ccccc1Cl` [(4-tert-Butyl-phenyl)-[9-(2-chloro-phenyl)-8-methyl-9H-purin-6-yl]amine], for which the IC50 is at most 1000 nM.

As to `CC(C)(C)c1ccc(Nc2ncnc3c2ncn3-c2ccccc2Cl)cc1` [(4-tert-Butyl-phenyl)-[9-(2-chloro-phenyl)-9H-purin-6-yl]-amine], the IC50 is at most 1000 nM.

Regarding `CC(C)(C)c1ccc(Nc2ncnc3c2ncn3-c2cccc(Cl)c2)cc1` [(4-tert-Butyl-phenyl)-[9-(3-chloro-phenyl)-9H-purin-6-yl]-amine], the IC50 was at most 1000 nM.

In the case of `O=S(=O)(c1ccc(Nc2ncnc3c2cnn3-c2ccccc2Cl)cc1)C(F)(F)F` [[1-(2-Chloro-phenyl)-1H-pyrazolo[3,4-d]pyrimidin-4-yl]-(4-trifluoromethanesulfonyl-phenyl)-amine], the IC50 was at most 1000 nM.

As for `C[C@@H]1CN(Cc2nc(Nc3ccc(C(F)(F)F)cc3)c3cnn(-c4ccccc4Cl)c3n2)C[C@H](C)O1` [[1-(2-Chloro-phenyl)-6-(2,6-dimethyl-morpholin-4-ylmethyl)-1H-pyrazolo[3,4-d]pyrimidin-4-yl]-(4-trifluoromethyl-phenyl)-amine], the IC50 was at most 1000 nM.

Turning to `CC(C)COCc1nc(Nc2ccc(C(C)C)cc2)c2cnn(-c3ccccc3Cl)c2n1` [[1-(2-Chloro-phenyl)-6-isobutoxymethyl-1H-pyrazolo[3,4-d]pyrimidin-4-yl]-(4-isopropyl-phenyl)-amine], the IC50 is at most 1000 nM.

Turning to `CC(C)COCc1nc(Nc2ccc(C(F)(F)F)cc2)c2cnn(-c3ccccc3Cl)c2n1` [[1-(2-Chloro-phenyl)-6-isobutoxymethyl-1H-pyrazolo[3,4-d]pyrimidin-4-yl]-(4-trifluoromethyl-phenyl)-amine], the IC50 is at most 1000 nM.

`FC(F)(F)c1ccc(Nc2ncnc3c2cnn3-c2ncccc2Cl)cc1` [[1-(3-Chloro-pyridin-2-yl)-1H-pyrazolo[3,4-d]pyrimidin-4-yl]-(4-trifluoromethyl-phenyl)-amine]: the IC50 is at most 1000 nM.

Take `FC(F)(F)c1ccc(Nc2ncnc3c2ncn3Cc2ccccc2Cl)cc1` [[9-(2-Chloro-benzyl)-9H-purin-6-yl]-(4-trifluoromethyl-phenyl)-amine]: the IC50 is at most 1000 nM.

Regarding `FC(F)(F)c1ccc(Nc2ncnc3c2ncn3-c2cccc(Cl)c2)cc1` [[9-(3-Chloro-phenyl)-9H-purin-6-yl]-(4-trifluoromethyl-phenyl)-amine], the IC50 is at most 1000 nM.

A further assay addresses vanilloid receptor (VR) (Homo sapiens, UniProt Q8NER1).
Assay: not given
Conditions: typical value, background; read-out: Ki value (binding to VR); cited from earlier work.
For the molecule `Cl.Cl.Cl.Cl.Cl.Cl.N.N.N.N.N.N.N.N.N.N.N.N.N.N.[O-2].[O-2].[Ru+3].[Ru+3].[Ru+4]` [ruthenium red], the Ki (commonly the equilibrium dissociation constant of an inhibitor or competing ligand from its target) is at least 140000 nM.

Values taken from patent US20070197559A1, “Aryl substituted purine analogues” (priority 2004, published 2007).
